Measured values published in US6613747B2, “6-O-carbamoyl ketolide antibacterials” (Ortho-McNeil Pharmaceutical, Inc., priority 2000, dated 2003).
Values after ≈ are worked out from the molar mass of the structure shown.

Tests used:
Test in all cases: MIC, microdilution broth method (NCCLS)
Type in all cases: cell-based
E. faecalis ATCC29212 = details: C: E. faecalis ATCC29212, 35° C., 16-20 hours
How it was run: (§1)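 NCCLS M7-A4 broth microdilution using two-fold serial drug dilutions in cation-adjusted Mueller-Hinton broth, with inoculum ~5×10^4 CFU/well. Trays were incubated at 35 °C for 16–20 h, and growth was compared against compound-free controls.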

S. pneumoniae ATCC49619 = details: D: S. pneumoniae ATCC49619, 35° C., 16-20 hours
How it was run: as §1

S. aureus ATCC29213 = details: B: S. aureus ATCC29213, 35° C., 16-20 hours
How it was run: as §1

H. influenzae ATCC49247 = details: E: H. influenzae ATCC49247, 35° C., 16-20 hours
How it was run: as §1

E. coli OC2605 = details: A: E. coli OC2605, 35° C., 16-20 hours
How it was run: as §1

| Compound | MIC (E. faecalis ATCC29212) [µg/mL] | MIC (S. pneumoniae ATCC49619) [µg/mL] | MIC (S. aureus ATCC29213) [µg/mL] | MIC (H. influenzae ATCC49247) [µg/mL] | MIC (E. coli OC2605) [µg/mL] |
| --- | --- | --- | --- | --- | --- |
| CC[C@H]1OC(=O)[C@H](C)C(=O)[C@H](C)[C@@H](O[C@@H]2O[C@H](C)C[C@H](N(C)C)[C@H]2O)[C@](C)(OC(=O)NCCCCc2ccccc2)C[C@@H](C)C(=O)[C@H](C)[C@H]2NC(=O)O[C@@]21C [Compound 9] | 0.25 (≈ 0.323 µM) | 0.03 (≈ 0.0388 µM) | 1 (≈ 1.29 µM) | 16 (≈ 20.7 µM) | >16 |
| CCC1OC(=O)C(C)C(=NOC)C(C)C(OC2OC(C)CC(N(C)C)C2O)C(C)(OC(=O)NCC=Cc2ccc(-c3ncccn3)cc2)CC(C)C(=NOC)C(C)C2NC(=O)OC12C (stereo not shown) [Compound 134] | 1 (≈ 1.12 µM) | 0.12 (≈ 0.134 µM) | 2 (≈ 2.24 µM) | >16 | >16 |
| CC[C@H]1OC(=O)[C@H](C)C(=O)[C@H](C)[C@@H](O[C@@H]2O[C@H](C)C[C@H](N(C)C)[C@H]2O)[C@](C)(OC(=O)NCC#Cc2ccc(-n3cccn3)cc2)C[C@@H](C)C(=O)[C@H](C)[C@H]2NC(=O)O[C@@]21C [Compound 82] | 0.06 (≈ 0.073 µM) | 0.03 (≈ 0.0365 µM) | 0.25 (≈ 0.304 µM) | 4 (≈ 4.87 µM) | >16 |
| CC[C@H]1OC(=O)[C@H](C)C(=O)[C@H](C)[C@@H](O[C@@H]2O[C@H](C)C[C@H](N(C)C)[C@H]2O)[C@](C)(OC(=O)NC/C=C/C=C/c2ccc(-n3cccn3)cc2)C[C@@H](C)C(=O)[C@H](C)[C@H]2NC(=O)O[C@@]21C [Compound 60] | 0.5 (≈ 0.588 µM) | 0.25 (≈ 0.294 µM) | 1 (≈ 1.18 µM) | 8 (≈ 9.41 µM) | >16 |
| CC[C@H]1OC(=O)[C@H](C)C(=O)[C@H](C)[C@@H](O[C@@H]2O[C@H](C)C[C@H](N(C)C)[C@H]2O)[C@](C)(OC(=O)NCc2ccc(-c3ncccn3)cc2)C[C@@H](C)C(=O)[C@H](C)[C@H]2NC(=O)O[C@@]21C [Compound 31] | 0.06 (≈ 0.0741 µM) | 0.03 (≈ 0.037 µM) | 0.25 (≈ 0.309 µM) | 2 (≈ 2.47 µM) | 16 (≈ 19.8 µM) |
| CC[C@H]1OC(=O)[C@H](C)C(=O)[C@H](C)[C@@H](O[C@@H]2O[C@H](C)C[C@H](N(C)C)[C@H]2O)[C@](C)(OC(=O)N(CC#Cc2ccccc2)CC#Cc2ccccc2)C[C@@H](C)C(=O)[C@H](C)[C@H]2NC(=O)O[C@@]21C [Compound 11] | 2 (≈ 2.3 µM) | 0.5 (≈ 0.575 µM) | 4 (≈ 4.6 µM) | >16 | >16 |
| CC[C@H]1OC(=O)[C@H](C)C(=O)[C@H](C)[C@@H](O[C@@H]2O[C@H](C)C[C@H](N(C)C)[C@H]2O)[C@](C)(OC(=O)NCc2cccc(-c3ncccn3)c2)C[C@@H](C)C(=O)[C@H](C)[C@H]2NC(=O)O[C@@]21C [Compound 65] | 0.25 (≈ 0.309 µM) | 0.06 (≈ 0.0741 µM) | 2 (≈ 2.47 µM) | 8 (≈ 9.88 µM) | >16 |
| CC[C@H]1OC(=O)[C@H](C)C(=O)[C@H](C)[C@@H](O[C@@H]2O[C@H](C)C[C@H](N(C)C)[C@H]2O)[C@](C)(OC(=O)NC/C=C/c2ccc(-c3cncnc3)cc2)C[C@@H](C)C(=O)[C@H](C)[C@H]2NC(=O)O[C@@]21C [Compound 27] | 0.12 (≈ 0.144 µM) | 0.06 (≈ 0.0718 µM) | 0.25 (≈ 0.299 µM) | 4 (≈ 4.78 µM) | 16 (≈ 19.1 µM) |
| CC[C@H]1OC(=O)[C@H](C)C(=O)[C@H](C)[C@@H](O[C@@H]2O[C@H](C)C[C@H](N(C)C)[C@H]2O)[C@](C)(OC(=O)NCc2ccc(-c3cccnn3)cc2)C[C@@H](C)C(=O)[C@H](C)[C@H]2NC(=O)O[C@@]21C [Compound 97] | 0.06 (≈ 0.0741 µM) | 0.03 (≈ 0.037 µM) | 0.5 (≈ 0.617 µM) | 2 (≈ 2.47 µM) | 16 (≈ 19.8 µM) |
| CCC1OC(=O)C(C)(F)C(=O)C(C)C(OC2OC(C)CC(N(C)C)C2O)C(C)(OC(=O)NCC=Cc2ccc(-c3cccnn3)cc2)CC(C)C(=NO)C(C)C2NC(=O)OC12C (stereo not shown) [Compound 125] | 0.25 (≈ 0.288 µM) | 0.06 (≈ 0.069 µM) | 0.5 (≈ 0.575 µM) | 2 (≈ 2.3 µM) | 16 (≈ 18.4 µM) |
| CC[C@H]1OC(=O)[C@H](C)C(=O)[C@H](C)[C@@H](O[C@@H]2O[C@H](C)C[C@H](N(C)C)[C@H]2O)[C@](C)(OC(=O)NCCNC(=O)c2ccc(-c3ccccc3)cc2)C[C@@H](C)C(=O)[C@H](C)[C@H]2NC(=O)O[C@@]21C [Compound 111] | 0.5 (≈ 0.578 µM) | 0.06 (≈ 0.0694 µM) | 1 (≈ 1.16 µM) | 4 (≈ 4.62 µM) | >16 |
| CC[C@H]1OC(=O)[C@H](C)C(=O)[C@H](C)[C@@H](O[C@@H]2O[C@H](C)C[C@H](N(C)C)[C@H]2O)[C@](C)(OC(=O)NC/C=C/c2ccc(-c3ccccn3)cc2)C[C@@H](C)C(=O)[C@H](C)[C@H]2NC(=O)O[C@@]21C [Compound 19] | 0.12 (≈ 0.144 µM) | 0.03 (≈ 0.0359 µM) | 0.12 (≈ 0.144 µM) | 4 (≈ 4.79 µM) | 16 (≈ 19.2 µM) |
| CC[C@H]1OC(=O)[C@H](C)C(=O)[C@H](C)[C@@H](O[C@@H]2O[C@H](C)C[C@H](N(C)C)[C@H]2O)[C@](C)(OC(=O)NCCNC(=O)c2cccnc2)C[C@@H](C)C(=O)[C@H](C)[C@H]2NC(=O)O[C@@]21C [Compound 112] | 2 (≈ 2.53 µM) | 0.5 (≈ 0.633 µM) | 16 (≈ 20.3 µM) | 16 (≈ 20.3 µM) | >16 |
| CCC1OC(=O)C(C)(F)C(=O)C(C)C(OC2OC(C)CC(N(C)C)C2O)C(C)(OC(=O)NCC=Cc2ccccc2)CC(C)C(=NO)C(C)C2NC(=O)OC12C (stereo not shown) [Compound 129] | 0.12 (≈ 0.152 µM) | 0.03 (≈ 0.0379 µM) | 0.25 (≈ 0.316 µM) | 1 (≈ 1.26 µM) | 8 (≈ 10.1 µM) |
| CC[C@H]1OC(=O)[C@H](C)C(=O)[C@H](C)[C@@H](O[C@@H]2O[C@H](C)C[C@H](N(C)C)[C@H]2O)[C@](C)(OC(=O)NCc2ccc(-c3cc[nH]n3)cc2)C[C@@H](C)C(=O)[C@H](C)[C@H]2NC(=O)O[C@@]21C [Compound 39] | 0.12 (≈ 0.15 µM) | 0.06 (≈ 0.0752 µM) | 1 (≈ 1.25 µM) | 1 (≈ 1.25 µM) | >16 |
| CC[C@H]1OC(=O)[C@H](C)C(=O)[C@H](C)[C@@H](O[C@@H]2O[C@H](C)C[C@H](N(C)C)[C@H]2O)[C@](C)(OC(=O)NC/C=C/c2ccc(-n3cccn3)cc2)C[C@@H](C)C(=O)[C@H](C)[C@H]2NC(=O)O[C@@]21C [Compound 18] | 0.06 (≈ 0.0728 µM) | 0.03 (≈ 0.0364 µM) | 0.25 (≈ 0.303 µM) | 4 (≈ 4.85 µM) | 16 (≈ 19.4 µM) |
| CC[C@H]1OC(=O)[C@H](C)C(=O)[C@H](C)[C@@H](O[C@@H]2O[C@H](C)C[C@H](N(C)C)[C@H]2O)[C@](C)(OC(=O)NCc2ccc(-c3ccncn3)cc2)C[C@@H](C)C(=O)[C@H](C)[C@H]2NC(=O)O[C@@]21C [Compound 79] | 0.06 (≈ 0.0741 µM) | 0.03 (≈ 0.037 µM) | 0.25 (≈ 0.309 µM) | 2 (≈ 2.47 µM) | 8 (≈ 9.88 µM) |
| CC[C@H]1OC(=O)[C@H](C)C(=O)[C@H](C)[C@@H](O[C@@H]2O[C@H](C)C[C@H](N(C)C)[C@H]2O)[C@](C)(OC(=O)NCc2ccc(-c3nccc(OC)n3)cc2)C[C@@H](C)C(=O)[C@H](C)[C@H]2NC(=O)O[C@@]21C [Compound 70] | 0.12 (≈ 0.143 µM) | 0.03 (≈ 0.0357 µM) | 0.25 (≈ 0.298 µM) | 4 (≈ 4.76 µM) | 16 (≈ 19 µM) |
| CC[C@H]1OC(=O)[C@H](C)C(=O)[C@H](C)[C@@H](O[C@@H]2O[C@H](C)C[C@H](N(C)C)[C@H]2O)[C@](C)(OC(=O)NC/C=C/c2ccc(-c3ccncn3)cc2)C[C@@H](C)C(=O)[C@H](C)[C@H]2NC(=O)O[C@@]21C [Compound 78] | 0.06 (≈ 0.0718 µM) | 0.03 (≈ 0.0359 µM) | 0.25 (≈ 0.299 µM) | 4 (≈ 4.78 µM) | >16 |
| CC[C@H]1OC(=O)[C@H](C)C(=O)[C@H](C)[C@@H](O[C@@H]2O[C@H](C)C[C@H](N(C)C)[C@H]2O)[C@](C)(OC(=O)NC/C(C)=C/c2ccccc2)C[C@@H](C)C(=O)[C@H](C)[C@H]2NC(=O)O[C@@]21C [Compound 21] | 0.25 (≈ 0.324 µM) | 0.06 (≈ 0.0777 µM) | 0.5 (≈ 0.648 µM) | 4 (≈ 5.18 µM) | >16 |
| CC[C@H]1OC(=O)[C@H](C)C(=O)[C@H](C)[C@@H](O[C@@H]2O[C@H](C)C[C@H](N(C)C)[C@H]2O)[C@](C)(OC(=O)NC/C=C/c2ccc(-c3ncccn3)cc2)C[C@@H](C)C(=NO)[C@H](C)[C@H]2NC(=O)O[C@@]21C [Compound 133] | 0.25 (≈ 0.294 µM) | 0.03 (≈ 0.0353 µM) | 0.25 (≈ 0.294 µM) | 2 (≈ 2.35 µM) | 16 (≈ 18.8 µM) |
| CC[C@H]1OC(=O)[C@H](C)C(=O)[C@H](C)[C@@H](O[C@@H]2O[C@H](C)C[C@H](N(C)C)[C@H]2O)[C@](C)(OC(=O)NC/C=C/c2ccc(-c3cccnc3)cc2)C[C@@H](C)C(=O)[C@H](C)[C@H]2NC(=O)O[C@@]21C [Compound 23] | 0.12 (≈ 0.144 µM) | 0.06 (≈ 0.0719 µM) | 0.25 (≈ 0.299 µM) | 2 (≈ 2.4 µM) | 16 (≈ 19.2 µM) |
| CC[C@H]1OC(=O)[C@H](C)C(=O)[C@H](C)[C@@H](O[C@@H]2O[C@H](C)C[C@H](N(C)C)[C@H]2O)[C@](C)(OC(=O)NCCN)C[C@@H](C)C(=O)[C@H](C)[C@H]2NC(=O)O[C@@]21C [Compound 110] | 8 (≈ 11.7 µM) | 1 (≈ 1.46 µM) | 16 (≈ 23.4 µM) | 16 (≈ 23.4 µM) | >16 |
